In patent US4638005A, “Monoquaternized pyrazinium compounds and their use as electron carriers in photosynthetic processes” (The Coca-Cola Company, priority 1983, dated 1987):

Legend:
nitrogenase [1] = biological target: T1, nitrogenase (Azotobacter vinelandii, UniProt P00459); assay: Chloroplast-coupled reduction of acetylene to ethylene by nitrogenase (electron carrier bioassay of Benemann); type: biochemical; settings: for ACTIVITY RELATIVE TO FERREDOXIN (%) / ACTIVITY (nmoles C2 H4 /mg protein/min): Table I; for ACTIVITY RELATIVE TO FERREDOXIN (%): acetylene reduction to ethylene; for ACTIVITY (nmoles C2 H4 /mg protein/min): illuminated spinach chloroplasts, synthetic carriers 2 mM, clostridial ferredoxin 0.2 mM; for ETHYLENE FORMATION % Ferredoxin Activity: Table III ranking; for % FERREDOXIN ACTIVITY: Table IV, acetylene reduction
T1 construct: the nitrogenase sample was prepared from a culture of Azotobacter vinelandii; endogenous in cells; host or cells: Azotobacter vinelandii culture; French press lysate, 10,000 x g supernatant (crude)
Procedure: The activity of the pyrazinium compounds as electron carriers in an illuminated photocouple process using isolated chloroplasts and the reductive enzyme catalyst nitrogenease has been determined using the bioassay of Benemann, et al., Proc. Natl. Acad. Sci. USA, 64, 1079(1969). In this method, the carrier activity is measured as a function of nitrogenase reduction of acetylene to ethylene, the rate of production of ethylene being the direct measurement.
(§1) For the bioassay, the nitrogenase sample was prepared from a culture of Azotobacter vinelandii grown to a cell density of about 1 g/l. The cells harvested by centrifugation were broken in a French press, cell debris spun off at 10,000 XG for 1 hr., and the supernatant containing 40 mg/ml protein was used in the bioassay experiments. […] chloroplasts from spinach leaves as described by Benemann were also used. The synthetic carriers were tested in aqueous solutions at concentrations of 2 mM, while the standard, clostridial ferredoxin, was used in 0.2 mM aqueous solution. The concentrations of carriers in the assay mixtures were chosen so as to guarantee carrier saturation conditions. Thus, the observed differences in rates of ethylene production from the substrate acetylene were assigned directly to variations in the efficiency of electron transfer from the illuminated chloroplast to the nitrogenase. The results obtained for acetylene reduction (nitrogen fixation) using the pyrazinium compounds of Examples 1 through 42 are summarized in Table I and are expressed as nmoles of ethylene produced per mg protein per minute.

[2] = Polarographic half-wave potential (first wave reduction); type: physicochemical; settings: 0.1 M phosphate buffer pH 7.55, 25° C.
Description: Sci., 65, 1471(1976). Therefore, it was of interest to measure polarographically the half-wave potentials of the several pyrazinium salts under consideration, to determine the possible effect of structure upon their redox potentials.

nitrogenase [3] = biological target: T1, nitrogenase; assay: Chloroplast-coupled evolution of hydrogen by nitrogenase in the absence of substrate; type: biochemical; settings: Table II, hydrogen evolution; for ACTIVITY (nmoles H2 /mg protein/min): no nitrogen or acetylene, synthetic carriers 2 mM, ferredoxin 0.2 mM
Procedure: as §1
It has been recognized for sometime the connection existing between hydrogen metabolism and nitrogen fixation. […] When nitrogenase was purified extensively, as mentioned above, it became apparent that in addition to nitrogen, nitrogenase also catalyzed the reduction of protons. The evolution of hydrogen is particularly active in the absence of the normal substrates for nitrogenase (nitrogen, acetylene, cyanide, azide, etc.), and is dependent upon a strong reductant and adenosine triphosphate hydrolysis. Since hydrogen evolution is not inhibited by CO, but reduction of nitrogen and other substrates is, the reduction of protons presumably occurs at a site other than the site of nitrogen reduction, H. C. Winter, et. al., Ann Rev. Biochem, 45, 409 (1976). Accordingly, with the same bioassay system and with exclusion of nitrogen, and acetylene, the activity of the pyrazinium compounds to act as carriers for production of hydrogen has been determined.
The results of this study, which are summarized in Table II, indicate that the pyrazinium salts that mediate the reduction of acetylene with electrons from the photoexcited chloroplast, are also mediating the reduction of protons by the nitrogenase.

[4] = cited from earlier work

T1 sequence (P00459 2-290 limits assumed): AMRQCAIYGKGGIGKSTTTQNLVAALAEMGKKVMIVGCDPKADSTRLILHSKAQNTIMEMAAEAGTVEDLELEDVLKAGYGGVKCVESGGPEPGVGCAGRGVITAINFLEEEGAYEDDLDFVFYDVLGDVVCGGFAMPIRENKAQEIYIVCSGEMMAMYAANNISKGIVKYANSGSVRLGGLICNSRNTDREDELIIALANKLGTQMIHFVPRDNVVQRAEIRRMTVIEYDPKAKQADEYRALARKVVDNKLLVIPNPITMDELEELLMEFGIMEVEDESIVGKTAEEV

Row | Compound | ACTIVITY RELATIVE TO FERREDOXIN (%) (nitrogenase [1]) | ACTIVITY (nmoles C2 H4 /mg protein/min) (nitrogenase [1]) | ETHYLENE FORMATION % Ferredoxin Activity (nitrogenase [1]) [%] | % FERREDOXIN ACTIVITY (nitrogenase [1]) [%] | E1/2 vs. SCE (mV) [2] [mV] | ACTIVITY RELATIVE TO FERREDOXIN (%) (nitrogenase [3]) | ACTIVITY (nmoles H2 /mg protein/min) (nitrogenase [3]) | midpoint potential ([4]; natural electron carriers for the nitrogenase) [mV] | half-wave potential ([4]; pH 7.52) [mV]
1 | CCC(=O)Cc1c[n+](C)ccn1 [Compound 3500, 1-Methyl-3-(2-oxybutyl)pyrazinium iodide] | 5 | 0.7 nmoles C2 H4 /mg protein/min | 5 | 5 | -575 | 19 | 5.0 | – | –
2 | 1-Methyl-3(2)-hydroxymethyl-6(5)-methylpyrazinium iodide [Compound 500] | 22 | 3.0 nmoles C2 H4 /mg protein/min | 22 | 22 | -751 | 46 | 12.3 | – | –
3 | CCCC(c1c[n+](C)ccn1)S(=O)(=O)[O-] (centres unmarked) [Compound 1200] | 107 | 14.5 nmoles C2 H4 /mg protein/min | 107 | 107 | -699 | 143 | 38.1 | – | –
4 | Cc1c[n+](CCCS(=O)(=O)[O-])ccn1 [Compound 600] | 64 | 8.7 nmoles C2 H4 /mg protein/min | 64 | 64 | -651 | 106 | 28.4 | – | –
5 | C[n+]1ccnc(C(C)(C)[N+](=O)[O-])c1.[I-] [Compound 3700, 1-Methyl-3-(1-nitroisopropyl)pyrazinium iodide] | 31 | 4.2 nmoles C2 H4 /mg protein/min | 31 | 31 | -701 | 32 | 8.6 | – | –
6 | CCC(O)Cc1c[n+](C)ccn1.[I-] (centres unmarked) [Compound 3400, 1-Methyl-3-(2-hydroxybutyl)pyrazinium iodide] | 20 | 2.7 nmoles C2 H4 /mg protein/min | 20 | 20 | -680 | 111 | 29.7 | – | –
7 | Clostridial Ferredoxin: the standard, clostridial ferredoxin; natural protein electron carrier, used in 0.2 mM aqueous solution (AYKIADSCVSCGACASECPVNAISQGDSIFVIDADTCIDCGNCANVCPVGAPVQE; UniProt P00195 2-56, looked up) [reference compound] | 100 | 13.5 nmoles C2 H4 /mg protein/min | 100 | 100 | -570 | 100 | 26.7 | -570 | -570
8 | C[n+]1ccnc(CCC(N)=O)c1 [Compound 4000, 1-Methyl-3-(2-carboxamidoethyl)pyrazinium iodide] | 28 | 3.8 nmoles C2 H4 /mg protein/min | 28 | 28 | -685 | 36 | 9.5 | – | –
9 | C[n+]1ccnc(C(=O)O)c1 [Compound 4400] | 0 | 0.0 nmoles C2 H4 /mg protein/min | 0 | 0 | -613 | 0 | 0.0 | – | –
